Measured values taken from ChEMBL document CHEMBL1158652, “Constituents of Helenium amarum. II. Isolation and Characterization of Heleniamarin and Other Constituents” (1979).
In brackets after ≈: the same amount, converted by molar mass.

System: KB
Assay: Cytotoxicity against human KB cells
Assay type: functional
Conditions: read-out: ED50 (the source's name)

Compound | EC50
C=C1C(=O)O[C@H]2C[C@@H](C)[C@@H]3C=CC(=O)[C@@]3(C)C[C@H]12 [AROMATICIN] | 2 µg/mL (≈ 8.12 µM)
COc1c(O)cc2oc(-c3ccc(O)cc3)cc(=O)c2c1O [HISPIDULIN] | 96 µg/mL (≈ 320 µM)
C=C1C(=O)O[C@H]2C[C@@H](C)[C@@H]3C=CC(=O)[C@@]3(C)[C@H](O)[C@H]12 [MEXICANIN I] | 1.9 µg/mL (≈ 7.24 µM)
C[C@@H]1C[C@@H]2OC(=O)[C@]3(C)[C@H]2[C@@H](OC3(C)O)[C@]2(C)C(=O)C=C[C@@H]12 (some centres undefined) [TENULIN] | 26 µg/mL (≈ 84.9 µM)
